This note sets out measurements from US20130022629A1, “Modulators of Immunoinhibitory Receptor PD-1, and Methods of Use Thereof” (priority 2010, published 2013).

Entries after “also recorded” stand apart in the source; their conditions may differ.

Experiment [1] concerns PD-1^−/− T cells. The experiment can be described thus: Specificity control: responses of PD-1^−/− (KO) T cells to compound. The format is cell-based, mouse. The following applies: PD-1^−/− T cells over the range of compound concentrations (FIG. 3). The text has this:
In vitro assays to test for compounds that interfere with the PD-1 function have been developed. These assays utilize unique mouse strains to specifically identify PD-1-specific effects. For example, a transgenic mouse that constitutively expresses PD-1 on T cells (PD-1^C) has been developed (43). It has recently been disclosed that PD-1^C T cells are very susceptible to signaling through PD-1, as measured by a decrease in T cell proliferation and cytokine production. These PD-1^C T cells can be used to assess the functional effects of small molecules. A PD-1 deficient mouse (PD-1^−/−) has also been developed (44), and T cells from such mice will serve as useful controls for in vitro as well as in vivo studies. In certain embodiments, PD-1^C T cells are cultured with a proliferative stimulus (anti-CD3) plus either PD-L2-Ig or a negative control Ig fusion protein. […] The specificity of the effects of sulfamonomethoxine and sulfamethizole were assessed by comparing responses of wild type, PD-1^c, and PD-1^−/− T cells. The effects of sulfamonomethoxine and sulfamethizole were evaluated over a range of compound concentrations (dilution series from 16 nM to 80 μM) and analyzed their effects on T cell proliferation and cytokine production. […]

Experiment [2] addresses T1, PD-1 (Mus musculus, UniProt Q02242).
T1 construct: expressed in transfected cells; host or cells: CD4 T cells purified from spleens of PD-1^C transgenic mice (transgene-driven constitutive PD-1)
T1 sequence (Q02242 25-288): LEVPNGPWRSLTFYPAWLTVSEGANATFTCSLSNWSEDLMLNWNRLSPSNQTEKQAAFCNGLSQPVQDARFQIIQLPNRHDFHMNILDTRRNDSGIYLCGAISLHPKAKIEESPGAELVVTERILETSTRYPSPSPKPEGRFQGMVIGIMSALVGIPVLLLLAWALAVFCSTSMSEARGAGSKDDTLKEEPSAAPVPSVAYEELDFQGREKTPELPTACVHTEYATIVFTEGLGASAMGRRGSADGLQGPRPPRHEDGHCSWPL
As to the kind of experiment: Primary screen: IFN-γ production by PD-1^C T cells with plate-bound anti-CD3 plus PD-L2Ig or control Ig. To be noted: compared with negative control wells on the plate (FIG. 2). The class given is cell-based. How it is done: In certain embodiments, PD-1^C T cells are cultured with a proliferative stimulus (anti-CD3) plus either PD-L2-Ig or a negative control Ig fusion protein. PD-1^C T cells proliferate less and produce lower amounts of cytokines when cultured with PD-L2-Ig as compared to the negative control Ig fusion protein because PD-1-ligands deliver an inhibitory signal through PD-1. Compounds of interest will modulate this inhibitory interaction in wild type and PD-1^C T cells, but not in PD-1^−/− cells. Thus, compounds which are antagonists will block PD-1 inhibitory function and lead to increased T cell responses by wild type and PD-1^C T cells, but will not affect PD-1^−/− T cells. Conversely, compounds which are agonists will deliver an inhibitory signal, and reduce T cell responses by wild type and PD-1^C T cells, but not PD-1^−/− T cells.
Because it is believed that PD-1 can inhibit cytokine (IFN-γ) production to a greater extent than T cell proliferation in a number of situations (36, 44), in certain embodiments IFN-γ production was chosen as the readout, using a bead-based fluorescent ELISA assay. These beads have a broad dynamic range (about 1 pg/mL to about 5 ng/mL), robust detection of cytokines from complex solutions (including culture media), minimal time requirement (about 3 hours from start to finish), and homogeneous format (no washing required). […]

The target of experiment [3] is T1, PD-1. As to the kind of experiment: Validation (secondary screen): rescue of PD-1 mediated inhibition of IFN-γ production in PD-1^C (Tg) T cells. The format is cell-based. The following applies: PD-L2Ig versus control Ig (FIG. 3). From the text: In vitro assays to test for compounds that interfere with the PD-1 function have been developed. These assays utilize unique mouse strains to specifically identify PD-1-specific effects. For example, a transgenic mouse that constitutively expresses PD-1 on T cells (PD-1^C) has been developed (43). It has recently been disclosed that PD-1^C T cells are very susceptible to signaling through PD-1, as measured by a decrease in T cell proliferation and cytokine production. These PD-1^C T cells can be used to assess the functional effects of small molecules. A PD-1 deficient mouse (PD-1^−/−) has also been developed (44), and T cells from such mice will serve as useful controls for in vitro as well as in vivo studies.
In certain embodiments, PD-1^C T cells are cultured with a proliferative stimulus (anti-CD3) plus either PD-L2-Ig or a negative control Ig fusion protein. […]
The specificity of the effects of sulfamonomethoxine and sulfamethizole were assessed by comparing responses of wild type, PD-1^c, and PD-1^−/− T cells. The effects of sulfamonomethoxine and sulfamethizole were evaluated over a range of compound concentrations (dilution series from 16 nM to 80 μM) and analyzed their effects on T cell proliferation and cytokine production. […]

On to `Cc1nnc(NS(=O)(=O)c2ccc(N)cc2)s1` [sulfamethizole], for which, in experiment [1], the “effect on PD-1 KO T cells” value is “no effect”. For the same molecule, the “rescue of IFN-γ production in the primary screen” value in experiment [2] is “rescue of IFN-γ production above the negative control wells”. In addition, the “specificity: rescue/block of PD-1 mediated inhibition in PD-1 Tg cells” value in experiment [3] is recorded as “block of PD-1 mediated inhibition in PD-1 Tg cells only when PD-L2 was present; also recorded: rescue of PD-1 mediated inhibition in PD-1 Tg cells only when PD-L2 was present”.
On the same counts, the results for `COc1cc(NS(=O)(=O)c2ccc(N)cc2)ncn1` [sulfamonomethoxine] are “no effect”, “rescue of IFN-γ production above the negative control wells” and “block of PD-1 mediated inhibition in PD-1 Tg cells only when PD-L2 was present; also recorded: rescue of PD-1 mediated inhibition in PD-1 Tg cells only when PD-L2 was present”.
